Patent US20060173080A1, “Methods of modulating TNF using bupropion” (The Regents of the University of California, priority 2002, published 2006)
Where two headings read alike, the source gives them in different places.

Tests used:
[1] = tested on: cultures enriched in astrocytes; details: added to in vitro cultures; cited from earlier work
[2] = tested on: Crohn's patients with fistulas; details: cited from earlier work
TNF [3] = details: different experimental models; cited from earlier work
[4] = tested on: patients with Crohn's disease; details: cited from earlier work
BALB/c mice = test: LPS-induced shock model: survival and signs of endotoxemia after lethal LPS challenge; format: in vivo
Description: Male BALB/c mice were injected with 11, 33 or 100 mg/kg of bupropion or with placebo i.p. in saline 1 h before challenge with 600 μg of E. coli LPS (Sigma, St. Louis, Mo.) by i.p. route. Mice were sacrificed 90 min for detection of cytokines in the serum by sandwich ELISA. Values represent the means±SEM of 5 mice per group. * P<0.05.
BALB/c mice were injected intraperitoneally (i.p.) with bupropion or placebo 1 h prior to i.p. injection of LPS (600 ug/mouse).
Male, 6 weeks old BALB/c mice were used in LPS-induced shock experiments. All mice were raised and maintained at the animal facilities at the Goncalo Moniz Research Center-FIOCRUZ, and provided with rodent diet and water ad libitum. Animal numbers in experimental groups were the minimum necessary to permit statistical analysis. All animals were sacrificed under anaesthesia.
In some experiments, groups of mice received i.p. injection of propranolol (1 mg/Kg), SCH23390 (25 μg/kg) and sulpiride (25 mg/Kg) 1 h prior to injection of bupropion. […] To determine serum TNF, IL-1 beta and IL-10 levels, mice were sacrificed 90 min after injection of LPS and bled by axilar vein puncture. Levels of IFN-gamma and nitric oxide were assayed using sera of mice sacrificed 4 h after LPS injection. Platelet and leukocyte cell counts were performed using blood collected with EDTA after 4 h of LPS challenge, using an automated cell counter (ADVIA 60, Bayer).

TNF [5] = details: in vivo LPS-induced model; cited from earlier work
TNF [6] = details: Goebel et al. 2000; cited from earlier work
CD patients = details: Kast 1998; cited from earlier work

Q: Which “LPS-stimulated TNF production” value [1] does the source give for `NCCc1ccc(O)c(O)c1` [dopamine] here?
A: The value was “significantly blunted”.

Q: For `NC[C@H](O)c1ccc(O)c(O)c1` [noradrenaline], which “LPS-stimulated TNF production” value [1] is on record?
A: The value was “significantly blunted”.

Q: What does the source list for “Remicaid: new drug given early FDA approval for Crohn's patients with fistulas”?
A: patients with complete remission ([2]; another study): 48%; patients in whom half of the fistulas closed ([2]; one study): 68%

Q: Which TNF levels (TNF [3]) does the source give for `COc1ccc(C2CNC(=O)C2)cc1OC1CCCC1` (stereo not drawn) [rolipram] here?
A: The TNF levels was “lower TNF levels”.

Q: With “infliximab: monoclonal antibody acting against TNF-alpha, for moderate to severe Crohn's disease” as the molecule, how does the patients in remission ([4]; four weeks after medication, placebo 4 percent) read?
A: The patients in remission was 33%.

Q: And the “share of patients with a 50 percent reduction in fistula drainage” value ([4]; second study, active fistulas, three doses two weeks apart)?
A: The value was “two-thirds”.

Q: What about the “share of the patients' fistulas closed” value ([4]; second study, active fistulas) of the same molecule?
A: Its value is “over half”.

Q: With `CCN1CCCC1CNC(=O)c1cc(S(N)(=O)=O)ccc1OC` (stereo not drawn) [sulpiride] as the molecule, how does the “effect of antagonist on bupropion mediated survival / protection” value (BALB/c mice; antagonist i.p. 1 h prior to bupropion (propranolol 1 mg/Kg, SCH23390 25 μg/kg, sulpiride 25 mg/Kg), lethal LPS) read?
A: The value was “did not interfere”.

Q: What about the “protection from lethal LPS challenge by the antagonist alone” value (BALB/c mice; without bupropion, propranolol 1 mg/Kg, SCH23390 25 μg/kg, sulpiride 25 mg/Kg i.p.) of the same molecule?
A: Its value is “partial protection”.

Q: And the TNF levels (TNF [5])?
A: Its TNF levels is “lowered TNF levels”.

Q: With bromocryptine as the molecule, how does the TNF levels (TNF [5]) read?
A: Its TNF levels is “lowered TNF levels”.

Q: What does the source list for `CC(C)NCC(O)c1ccc(O)c(O)c1` (stereo not drawn) [isoproteronol]?
A: TNF levels (TNF [6]): lower TNF levels; LPS-stimulated TNF production [1]: significantly blunted

Q: With `NNCCc1ccccc1` [phenelzine] as the molecule, how does the CD remission (CD patients) read?
A: Its CD remission is “CD remission”.
